Assays:
[1] = Dissolution of phenylephrine sustained release coated beads; type: physicochemical; conditions: when combined with Gauifenesin DC
Protocol: Due to this effect the testing of the dissolution rate is achieved by first making a mock-up of the finished product. By doing so the suitability of the phenylephrine beads was determined more accurately. Direct specifications for dissolution were determined once data was collected to accurately predict this rate change.

[2] = water and alcohol; cited from earlier work

| dissolution rate [1] | Compound | solubility [2] |
| --- | --- | --- |
| accelerated | CNC[C@H](O)c1cccc(O)c1 [phenylephrine] | – |
| – | COc1ccccc1OCC(O)CO (centres unmarked) [Guaifenesin, 3(2-methoxyphenoxy)-1,2-propanediol] | soluble in water and alcohol |
